The subject of one assay is MDA-MB-231 cells. The following applies: at IC50 value, 24 h.
For assay [1], the system named is MCF-7 human breast cancer cells. Put plainly: MTT cell viability, MCF-7. As to conditions: 72 h, mean ± SD. The class given is cell-based. On the procedure:
(§1) The six cell lines used in this work (MCF-7, MDA-MB-231, HeLa, […], MCF-10A and Hek-293) were purchased from American Type Culture Collection (ATCC, Manassas, VA, USA). MCF-7 human breast cancer cells, estrogen receptor (ER)-positive, were maintained in Dulbecco’s modified Eagle’s medium/nutrient mixture Ham F-12 (DMEM/F12), supplemented with 10% fetal bovine serum (FBS) and 100 U mL^−1 penicillin/streptomycin. MCF-10A human mammary epithelial cells, were cultured in DMEM/F12 medium, supplemented with 5% horse serum (HS, Thermo Fisher Scientific, Milan, Italy), 100 U mL^−1 penicillin/streptomycin, […] hydrocortisone, 20 ng mL^−1 human epidermal growth factor (hEGF), […] insulin, and […] cholera enterotoxin (Sigma–Aldrich, Milan, Italy). MDA-MB-231 human breast cancer cells, known as triple-negative cells (i.e., not overexpressing human epidermal growth factor receptor 2 (HER2), estrogen and progesterone receptors), were cultured in DMEM/F12 supplemented with 5% FBS, 1% L-glutamine and 100 U mL^−1 penicillin/streptomycin. HeLa human epithelial cervix carcinoma cells, estrogen receptor (ER)-negative, and […] human endometrial adenocarcinoma cells, estrogen receptor (ER)-positive, were maintained in minimum essential Eagle’s Medium (MEM), supplemented with 10% FBS, 1% L-glutamine, 100 U mL^−1 penicillin/streptomycin and 1% Non-Essential Amino Acids (NEAA). Hek-293 human embryonic kidney epithelial cells were cultured in DMEM high glucose (4.5 g L^−1), supplemented with 10% FBS, 1% L-glutamine and 100 U mL^–1 penicillin/streptomycin. Cells were maintained at 37 °C in a humidified atmosphere of 95% air and 5% CO2 and periodically screened for contamination.
(§2) Cell viability has been determined using the 3-(4,5-dimethylthiazol-2-y1)-2,5-diphenyltetrazolium bromide (MTT, Sigma–Aldrich, Milan, Italy) assay. Cells have been seeded on 48-well plates and grown in complete medium. Before being treated, cells have been starved in serum free medium for 24 h for allowing cell cycle synchronization. […] Data are representative of three independent experiments; standard deviations (SD) have been shown.

For assay [2], the system named is ISHIKAWA human endometrial adenocarcinoma cells. Nature of the assay: MTT cell viability, […]. The class given is cell-based. The following applies: 72 h, mean ± SD. The protocol:
as §1, §2

The test system of the next assay is caspase-8. As to conditions: 5 μM, 24 h, MDA-MB-231 cells.
The test system of assay [3] is Hek-293 human embryonic kidney epithelial cells. Nature of the assay: MTT cell viability, normal Hek-293. The class given is cell-based. The protocol: as §1, §2

Read-outs that look alike come from different tables or passages of the source.

As usually defined, the IC50 is the point on the concentration scale where inhibition reaches its midpoint.

`C[n+]1c(Cl)c(Cl)n(CC(O)c2ccccc2)[c]1[Au-][c]1n(CC(O)c2ccccc2)c(Cl)c(Cl)[n+]1C.[Cl][Au-][Cl]` (racemic) [AuL7, bis-[4,5-dichloro-(N-methyl-N’(2-hydroxy-2-phenyl)ethyl-imidazole-2-ylidene)gold(I)]^+[dichloro-gold]^−]: in the assay on MDA-MB-231 cells, the “apoptosis (TUNEL)” value was “green nuclear fluorescence”. Besides, the IC50 in assay [1] amounted to 5.18 ± 0.4 µM; in assay [2], 29.9 ± 0.9 µM; in assay [3] (normal cells, MTT, 72 h, mean ± SD, read-out: IC50 Hek-293), 65 µM; in assay [3] (read-out: IC50 Hek-293 of AuL7 after Quercetin pre-treatment, pre-treatment for 4 h with Quercetin (at 50 μM)), 96.9 ± 1.1 µM. In addition, the caspase-8 activity result with caspase-8 is “unchanged”.

The record behind these values is publication PMC7281280, “Is the Way to Fight Cancer Paved with Gold? Metal-Based Carbene Complexes with Multiple and Fascinating Biological Features” (Pharmaceuticals, 2020).
